Data on ten compounds can be found in patent EP0332387B1, “Triazole derivatives, their preparation and their use as fungicides” (Sankyo Company Limited, priority 1988, dated 1989).

What all share (assay type): in vivo
Assay [1] has as its system Venturia inaequalis. In words: Preventive activity against apple scab (Experiment 9). The following applies: for Index (disease controlling index): apple seedlings sprayed at 300 ppm, inoculated after 24 hours, 3 days moist chamber then 10 days greenhouse, diseased area on third and fourth leaves. As to the method: Apple seedlings at the 3 - 4 leaf stage were sprayed with an aqueous suspension of the test compound at a concentration of 300 ppm (30 ml/3 pots). The seedlings were then kept for 24 hours at room temperature, after which they were inoculated with the fungus, Venturia inaequalis, by spraying a spore suspension of the fungus over the seedlings. After inoculation, the seedlings were kept in a moist chamber for 3 days at 20 - 22 °C and then moved to a greenhouse at 20 - 22°C for 10 days. The disease controlling index was given on the basis of the diseased area on the third and fourth leaves.

Assay [2] deals with Sphaerotheca fuliginea. Briefly: Preventive activity against powdery mildew of cucumber (Experiment 8). To be noted: cucumber seedlings sprayed at 300 ppm, inoculated after 24 hours, evaluated after 7 days in greenhouse; diseased area on third and fourth leaves. Here is the method: Cucumber seedlings (variety Sagamihanpaku) at the 3 - 4 leaf stage were sprayed with an aqueous suspension of the test compound at a concentration of 300 ppm (30 ml/3 pots). The seedlings were then kept for 24 hours at room temperature, after which they were inoculated with conidida of Sphaerotheca fuliginea. After keeping the seedlings in a greenhouse for 7 days, the disease controlling index was evaluated on the basis of the diseased area on the third and fourth leaves.

For assay [3], the system named is Rhizoctonia solani. In words: Preventive activity against sheath blight of rice plants (Experiment 2). The following applies: rice seedlings (variety Nihonbare), sprayed at 100 ppm (30 ml/3 pots) 24 hours before inoculation, 5 days; height of the lesions. More on the design: key: 0 = disease as untreated, 5 = no disease (complete control). As to the method:
Rice seedlings (variety Nihonbare) at the 4 - 5 leaf stage were sprayed with an aqueous suspension of the test compound at a concentration of 100 ppm (30 ml/3 pots). The seedlings were then kept for 24 hours at room temperature, after which they were inoculated with the fungus, Rhizoctonia solani, by placing 4 - 5 oat grains on which the fungus had previously been cultured around the base of each seedling. The seedlings were then kept in a moist chamber for 5 days at 25 - 27 °C. The disease controlling index was given on the basis of the height of the lesions formed on the rice seedlings.
Except in Table 12G, the compounds tested have the formula (1-1), in which Ar represents the group shown at the beginning of each part of the Table and R^1, R^2, X and Y are as defined in the Table.
(§1) The disease controlling index shown in the foregoing Tables 11 to 19 is indicated by the following codes: • 5--no disease (complete control) • 4--disease rate is less than 10% of the untreated plant • 3--disease rate is 10% - 30% of the untreated plant • 2--disease rate is 30% - 50% of the untreated plant • 1--disease rate is 50% - 70% of the untreated plant • 0--disease rate is almost same as the untreated plant.

Assay [4] deals with Gibberella Fujikuroi. In words: Activity against bakanae disease of rice plants by seed soaking (Experiment 5). Further details: key: 0 = disease as untreated, 5 = no disease (complete control). To be noted: infected rice seeds (variety Tanginbozu) immersed 3 days in aqueous suspension (concentration not given), 3 weeks; number of diseased seedlings. Here is the method:
Ten grams of rice seeds (variety Tanginbozu), infected with Gibberella Fujikuroi, were immersed in 20 ml of an aqueous suspension of the test compound for 3 days. At the end of this time, the treated seeds were densely sown in soil in pots, and the pots were placed in a greenhouse at 20 - 30 °C for 3 weeks. The disease controlling index was given on the basis of the number of diseased seedlings.
(§2) The compounds tested have the formula (1-1), in which Ar represents the group shown at the beginning of each part of the Table and R^1, R^2, X and Y are as defined in the Table.
as §1

In assay [5] the test system is Rhizoctonia solani. Briefly: Preventive activity against sheath blight of rice plants by submerged application (Experiment 4). The following applies: rice seedlings (variety Nihonbare), applied to the water in the pots, 100 g per 10 ares, inoculated after 7 days, 5 days; height of the lesions.
Excerpt: Rice seedlings (variety Nihonbare) at the 4 - 5 leaf stage grown in pots were flooded to a depth of 1 cm with water. The test compound was then applied to the water in the pots in an amount corresponding to 100 g per 10 ares. After keeping the seedlings in a greenhouse for 7 days, the water was drained from the pots and the seedlings were inoculated with the fungus, Rhizoctonia solani, by placing 4 - 5 oat grains on which the fungus had previously been cultured around the base of each seedling. The seedlings were then kept in a moist chamber for 5 days at 25 - 27 °C. The disease controlling index was given on the basis of the height of the lesions formed on the rice seedlings.
Except for Table 14F, the compounds tested have the formula (1-1), in which Ar represents the group shown at the beginning of each part of the Table and R^1, R^2, X and Y are as defined in the Table.
as §1

Assay [6] has as its system Pyricularia oryzae. To be noted: rice seedlings (variety Sachikaze), sprayed 24 hours after inoculation at 10 ppm (30 ml/3 pots), further 6 days; number of lesions on the upper two leaves.
The subject of assay [7] is Puccinia recondita. Briefly: Curative activity against leaf rust of wheat (Experiment 6). The following applies: wheat seedlings (variety Norin No 61), sprayed after inoculation at 3 ppm (30 ml/3 pots), 10 days; diseased area on the first leaf. As to the method: Wheat seedlings (variety Norin No 61) at the first leaf stage were inoculated with the fungus, Puccinia recondita, by spraying them with a spore suspension of the fungus. They were then kept in a moist chamber for 24 hours at 20 - 22 °C, after which they were moved to a greenhouse at 15 - 20 °C. […] The seedlings were then continuously kept in the greenhouse for 10 days. The disease controlling index was given on the basis of diseased area on the first leaf.

The subject of assay [8] is Rhizoctonia solani. Briefly: Curative activity against sheath blight of rice plants (Experiment 3). The following applies: rice seedlings (variety Nihonbare), sprayed 24 hours after inoculation at 10 ppm (30 ml/3 pots), further 5 days; height of the lesions. Further details: key: 0 = disease as untreated, 5 = no disease (complete control). Here is the method: Rice seedlings (variety Nihonbare) at the 4 - 5 leaf stage were inoculated with the fungus, Rhizoctonia solani, by placing 4 - 5 oat grains on which the fungus had previously been cultured around the base of each rice seedling and keeping them in a moist chamber at 25 - 27 °C. After 24 hours, the rice seedlings were sprayed with an aqueous suspension of the test compound at a concentration of 10 ppm (30 ml/3 pots) and they then continued to be kept in the moist chamber for a further 5 days. The disease controlling index was given on the basis of the height of the lesions formed on the rice seedlings.
as §2, §1

The subject of assay [9] is Erysiphe graminis f.sp. hordei. Briefly: Curative activity against powdery mildew of barley (Experiment 7). The following applies: barley seedlings (variety Sekishinriki), sprayed one day after inoculation at 3 ppm (30 ml/3 pots), further 10 days; diseased area on the first leaf. Here is the method:
Barley seedlings (variety […]) at the first leaf stage were inoculated with conidia of Erysiphe graminis f.sp. hordei and kept in a greenhouse at 15 - 20°C. After one day, the seedlings were sprayed with an aqueous suspension of the test compound at a concentration of 3 ppm (30 ml/3 pots), and they continued to be kept in the greenhouse at that temperature for a further 10 days. The disease controlling index was given on the basis of the diseased area on the first leaf.

As to `C[C@@H](NC(=O)c1ccc(Cl)cc1Cl)[C@](O)(Cn1cncn1)c1ccc(Cl)cc1Cl` (relative stereo) [Example 11, (2R*, 3R*)-3-(2,4-Dichlorobenzoylamino)-2-(2,4-dichlorophenyl)-1-(1H-1,2,4-triazol-1-yl)-2-butanol], the “Index (disease controlling index)” value in assay [1] and in assay [2] was 5 throughout. The disease controlling index in assay [3] and in assay [4] was 4 (disease rate is less than 10% of the untreated plant) throughout.

The compound `C[C@@H](N=[N+]=[N-])[C@](O)(Cn1cncn1)c1ccc(Cl)cc1` (relative stereo) [Example 63, (2R*, 3R*)-3-Azido-2-(4-chlorophenyl)-1-(1H-1,2,4-triazol-1-yl)-2-butanol] had a disease controlling index in [4] of 5.

As to `C[C@@H](CN=[N+]=[N-])[C@](O)(Cn1cncn1)c1ccc(Cl)cc1Cl` (relative stereo) [Example 90, (2R*, 3S*)-4-Azido-2-(2,4-dichlorophenyl)-3-methyl-1-(1H-1,2,4-triazol-1-yl)-2-butanol], the disease controlling index in assay [5], in assay [6], in assay [3] and in assay [4] was 5 in each case.

Consider `C[C@@H](NC(=O)c1ccc(C(F)(F)F)cc1)[C@](O)(Cn1cncn1)c1ccc(Cl)cc1Cl` (relative stereo) [Example 12, (2R*, 3R*)-2-(2,4-Dichlorophenyl)-1-(1H-1,2,4-triazol-1-yl)-3-(4-trifluoromethylbenzoylamino)-2-butanol], for which the disease controlling index in [6] is listed as 5; in [7], 5; in assay [8], 5; in assay [3], 5; in assay [9] it was 5; in assay [4], 4 (disease rate is less than 10% of the untreated plant). The “Index (disease controlling index)” value in assay [1] and in assay [2] was 5 in each case.

In the case of `C[C@@H](NC(=O)c1ccc(Cl)cc1)[C@](O)(Cn1cncn1)c1ccc(F)cc1F` (relative stereo) [Example 16, (2R*, 3R*)-3-(4-Chlorobenzoylamino)-2-(2,4-difluorophenyl)-1-(1 H-1 ,2,4-triazol-1-yl)-2-butanol], the disease controlling index in assay [6] amounted to 5; in assay [7], 5; in [1] (apple seedlings, sprayed at 300 ppm (30 ml/3 pots) 24 hours before inoculation, diseased area on the third and fourth leaves), 5; in assay [8] it was 5; in [3], 5; in [9] it was 5. In assay [4], the disease controlling index is on record as 4 (disease rate is less than 10% of the untreated plant). Besides, the “Index (disease controlling index)” value in assay [2] worked out at 5.

With `CC[C@@H](OC1CCCCO1)[C@](O)(Cn1cncn1)c1ccc(F)cc1F` (relative stereo) [Example 202, (2R^*, 3R*)-2-(2,4-Difluorophenyl)-3-tetrahydropyranyloxy)-1-(1H-1,2,4-triazol-1-yl)-2-pentanol], the disease controlling index is recorded as 4 (disease rate is less than 10% of the untreated plant) in assay [6]; 5 in [7]; 4 (disease rate is less than 10% of the untreated plant) in assay [8]; 4 (disease rate is less than 10% of the untreated plant) in assay [3]; 5 in [9].

Take `C[C@@H](NC(=O)c1ccc(F)cc1)[C@](O)(Cn1cncn1)c1ccc(F)cc1F` (relative stereo) [Example 15, (2R*, 3R*)-2-(2,4-Difluorophenyl)-3-(4-fluorobenzoylamino)-1-(1H-1,2,4-triazol-1-yl)-2-butanol]: the disease controlling index in assay [7] was 5; in assay [9] it was 5; in [4] it was 4 (disease rate is less than 10% of the untreated plant). Further, in assay [2], the “Index (disease controlling index)” value was found to be 5.

In the case of `C[C@@H](NC(=O)c1ccc(F)cc1)[C@](O)(Cn1cncn1)c1ccc(Cl)cc1Cl` (relative stereo) [Example 4, (2R*, 3R*)-2-(2,4-Dichlorophenyl)-3-(4-fluorobenzoylamino)-1-(1 H-1 ,2,4-triazol-1-yl)-2-butanol], the disease controlling index is on record as 5 in assay [7], 4 (disease rate is less than 10% of the untreated plant) in assay [3] and 5 in [9]. The “Index (disease controlling index)” value in assay [1] turned out to be 5.

As to `C[C@@H](NC(=O)c1ccc(C(F)(F)F)cc1)[C@](O)(Cn1cncn1)c1ccc(Cl)cc1Cl` [Example 13, (2R, 3R)-2-(2,4-Dichlorophenyl)-3-(4-trifluoromethylbenzoylamino)-1-(1H-1,2,4-triazol-1-yl)-2-butanol], the disease controlling index is reported as 5 in [6]; 5 in assay [7]; 4 (disease rate is less than 10% of the untreated plant) in [3]; 5 in assay [9]; 5 in assay [4]. Besides, the “Index (disease controlling index)” value in [2] turned out to be 5.

Take `C[C@@H](N1C(=O)c2ccc(Cl)cc2C1=O)[C@](O)(Cn1cncn1)c1ccc(F)cc1F` (relative stereo) [Example 135, (2R*, 3R*)-2-(2,4-Difluorophenyl)-3-(4-chlorophthalimido)-1-(1H-1,2,4-triazol-1-yl)-2-butanol]: the disease controlling index in assay [6] is given as 4 (disease rate is less than 10% of the untreated plant); in [7], 5; in assay [9], 5; in assay [4] it was 4 (disease rate is less than 10% of the untreated plant). Further, the “Index (disease controlling index)” value in assay [2] is given as 5.
